# Laboratory results reported in article PMC6120233, “Importance of Val567 on heme environment and substrate recognition of neuronal nitric oxide synthase” (FEBS Open Bio, 2018).
# What was measured:
# [1] = target: T1, WT nNOSoxy (oxygenase domain of rat neuronal nitric oxide synthase) (Rattus norvegicus, UniProt P29476, V567Y); experiment: biochemical; design: UV-visible perturbation difference spectroscopy; displacement of heme-bound imidazole (0.5 mM), apparent dissociation constant; conditions: read-out: Val567Tyr
# T1 construct: gene Nos1; oxygenase domain, aa 1-720 plus 6-histidine tag, plasmid pCWnNOSoxy, E. coli BL21(DE3), HisTrap purification
# T1 sequence (P29476 1-720 V567Y): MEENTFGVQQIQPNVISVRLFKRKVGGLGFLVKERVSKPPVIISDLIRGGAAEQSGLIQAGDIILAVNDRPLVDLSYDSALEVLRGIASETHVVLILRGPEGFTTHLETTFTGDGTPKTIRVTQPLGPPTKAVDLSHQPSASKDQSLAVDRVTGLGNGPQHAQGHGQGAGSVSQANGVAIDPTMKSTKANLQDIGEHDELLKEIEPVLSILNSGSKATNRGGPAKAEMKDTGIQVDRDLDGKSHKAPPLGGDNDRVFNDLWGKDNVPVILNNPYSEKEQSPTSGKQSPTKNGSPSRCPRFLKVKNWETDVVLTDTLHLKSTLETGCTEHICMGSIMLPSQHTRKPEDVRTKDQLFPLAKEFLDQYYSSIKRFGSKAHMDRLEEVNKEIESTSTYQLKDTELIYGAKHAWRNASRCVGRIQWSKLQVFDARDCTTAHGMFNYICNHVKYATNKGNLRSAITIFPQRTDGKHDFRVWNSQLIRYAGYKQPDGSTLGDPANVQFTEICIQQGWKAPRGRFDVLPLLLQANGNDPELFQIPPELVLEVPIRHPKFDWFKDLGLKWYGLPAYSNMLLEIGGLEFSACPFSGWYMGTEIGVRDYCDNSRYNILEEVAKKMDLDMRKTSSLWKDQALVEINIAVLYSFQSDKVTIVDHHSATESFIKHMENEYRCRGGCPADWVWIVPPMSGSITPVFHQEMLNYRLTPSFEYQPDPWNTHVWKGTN
# Procedure: (§1) The native enzymes (~1–2 μM) were incubated 5 min at 4 °C in 50 mM HEPES buffer pH 7.4 in the presence of 0.5 mM ImH and then equally divided into reference and sample cuvettes. After 2 min at room temperature, increasing concentrations of the studied compounds were added to the sample cuvette and equivalent amounts of buffer were added to the reference cuvette. Apparent dissociation constants (K s,app) were estimated by plotting the difference in absorbance between peak (~395 nm) and valley (~430 nm) as a function of added substrate or substrate analogue concentrations and fitting the data to a hyperbolic one‐site binding model by Origin (OriginLab Corp., Northampton, MA, USA). […] Effective K s values can be deduced from the K s,app and the K s values for ImH, assuming simple competitive binding equilibrium 37.
# [2] = target: T2, WT nNOSoxy (oxygenase domain of rat neuronal nitric oxide synthase) (Rattus norvegicus, UniProt P29476, V567S); experiment: biochemical; design: UV-visible perturbation difference spectroscopy; displacement of heme-bound imidazole (0.5 mM), apparent dissociation constant; conditions: read-out: Val567Ser
# T2 construct: gene Nos1; oxygenase domain, aa 1-720 plus 6-histidine tag, plasmid pCWnNOSoxy, E. coli BL21(DE3), HisTrap purification
# T2 sequence (P29476 1-720 V567S): as the sequence (P29476 1-720 V567Y) above, with Y567S counted along it
# Procedure: as §1
# [3] = target: T3, WT nNOSoxy (oxygenase domain of rat neuronal nitric oxide synthase) (Rattus norvegicus, UniProt P29476, V567T); experiment: biochemical; design: UV-visible perturbation difference spectroscopy; displacement of heme-bound imidazole (0.5 mM), apparent dissociation constant; conditions: read-out: Val567Thr
# T3 construct: gene Nos1; oxygenase domain, aa 1-720 plus 6-histidine tag, plasmid pCWnNOSoxy, E. coli BL21(DE3), HisTrap purification
# T3 sequence (P29476 1-720 V567T): as the sequence (P29476 1-720 V567Y) above, with Y567T counted along it
# Procedure: as §1
# [4] = target: T3, WT nNOSoxy (oxygenase domain of rat neuronal nitric oxide synthase); experiment: UV-visible difference spectroscopy, heme-Fe(III)-imidazole complex formation; assay type: binding; conditions: read-out: Val567Thr
# [5] = target: T4, WT nNOSoxy (oxygenase domain of rat neuronal nitric oxide synthase) (Rattus norvegicus, UniProt P29476); experiment: as above; assay type: binding
# T4 construct: gene Nos1; oxygenase domain, aa 1-720 plus 6-histidine tag, plasmid pCWnNOSoxy, E. coli BL21(DE3), HisTrap purification
# T4 sequence (P29476 1-720): as the sequence (P29476 1-720 V567Y) above, with Y567V counted along it
# From the text: (§2) UV-visible difference spectroscopy, heme-Fe(III)-imidazole complex formation on WT nNOSoxy (oxygenase domain of rat neuronal nitric oxide synthase)
# [6] = target: T1, WT nNOSoxy (oxygenase domain of rat neuronal nitric oxide synthase); experiment: as above; assay type: binding; conditions: read-out: Val567Tyr
# From the text: as §2
# [7] = target: T5, WT nNOSoxy (oxygenase domain of rat neuronal nitric oxide synthase) (Rattus norvegicus, UniProt P29476, V567F); experiment: as above; assay type: binding; conditions: read-out: Val567Phe
# T5 construct: gene Nos1; oxygenase domain, aa 1-720 plus 6-histidine tag, plasmid pCWnNOSoxy, E. coli BL21(DE3), HisTrap purification
# T5 sequence (P29476 1-720 V567F): as the sequence (P29476 1-720 V567Y) above, with Y567F counted along it
# From the text: as §2
# [8] = target: T2, WT nNOSoxy (oxygenase domain of rat neuronal nitric oxide synthase); experiment: as above; assay type: binding; conditions: read-out: Val567Ser
# From the text: as §2
# [9] = target: T6, WT nNOSoxy (oxygenase domain of rat neuronal nitric oxide synthase) (Rattus norvegicus, UniProt P29476, V567R); experiment: as above; assay type: binding; conditions: read-out: Val567Arg
# T6 construct: gene Nos1; oxygenase domain, aa 1-720 plus 6-histidine tag, plasmid pCWnNOSoxy, E. coli BL21(DE3), HisTrap purification
# T6 sequence (P29476 1-720 V567R): as the sequence (P29476 1-720 V567Y) above, with Y567R counted along it
# From the text: as §2
# [10] = target: T5, WT nNOSoxy (oxygenase domain of rat neuronal nitric oxide synthase); experiment: biochemical; design: UV-visible perturbation difference spectroscopy; displacement of heme-bound imidazole (0.5 mM), apparent dissociation constant; conditions: read-out: Val567Phe
# Procedure: as §1
# [11] = target: T6, WT nNOSoxy (oxygenase domain of rat neuronal nitric oxide synthase); experiment: biochemical; design: UV-visible perturbation difference spectroscopy; displacement of heme-bound imidazole (0.5 mM), apparent dissociation constant; conditions: read-out: Val567Arg
# Procedure: as §1
smiles,measurement,setting,value
"CCCNC(=N)N [compound 5, n-Propyl-guanidine]",Kd,[1],295 ± 16 µM
same,Kd,[2],122 ± 8 µM
same,Kd,[3],267 ± 63 µM
c1c[nH]cn1 [imidazole],Kd,[4],93 ± 24.7 µM
same,Kd,[5],76.3 ± 5.4 µM
same,Kd,[6],11.1 ± 3 µM
same,Kd,[7],152 ± 26 µM
same,Kd,[8],140 ± 16 µM
same,Kd,[9],262 ± 77 µM
"CC(C)NC(=N)N [compound 9, Isopropyl-guanidine]",Kd,[1],147 ± 43 µM
same,Kd,[10],293 ± 34 µM
same,Kd,[2],34.2 ± 4.2 µM
same,Kd,[3],99 ± 19 µM
same,Kd,[11],> 500 µM
"N=C(N)NC1CC1 [compound 8, Cyclopropyl-guanidine]",Kd,[1],24.3 ± 1.4 µM
same,Kd,[2],21.6 ± 3.9 µM
same,Kd,[3],20.2 ± 3.9 µM
same,Kd,[11],237 ± 85 µM
"CCCCNC(=N)N [compound 6, n-Butyl-guanidine]",Kd,[2],322 ± 31 µM
same,Kd,[3],23 ± 5.6 µM
"COc1ccc(NC(=N)N)cc1 [compound 12, 4-methoxyphenyl-guanidine]",Kd,[2],7.8 ± 1.2 µM
same,Kd,[3],189 ± 63 µM
"N=C(N)Nc1ccc(F)cc1 [compound 11, 4-fluorophenyl-guanidine]",Kd,[10],165 ± 87 µM
same,Kd,[2],2.2 ± 0.4 µM
